Patent publication US20230340011A1 (Asteroid Therapeutics, priority 2022, published 2023)

Tests used:
SREBP-2 [1] = molecular target: T1, SREBP-2 (Homo sapiens (Human), UniProt Q12772); experiment: SREBP-2 IC50 (category A-D, Tables 1 and 3); format: cell-based; conditions: Table 3, trans-AB examples
LXRβ [2] = molecular target: T2, LXRβ (Homo sapiens (Human), UniProt P55055); experiment: LXRβ PPI (category A-D, Tables 1 and 3); format: biochemical; conditions: Table 3, trans-AB examples
SREBP-2 [3] = molecular target: T1, SREBP-2; experiment: In vitro assay SREBP-2: PathHunter U2OS SREBP-2 Nuclear Translocation Cell Line, U18666A-stimulated; format: cell-based; conditions: PathHunter U2OS SREBP-2 nuclear translocation cells, U18666A 10 μM, overnight (16 hours)
LXRβ [4] = molecular target: T2, LXRβ; experiment: In vitro assay LXRβ: PathHunter NHR CHO cells, LXRβ / Steroid Receptor Co-activator Peptide enzyme fragment complementation; format: cell-based; conditions: PathHunter NHR CHO cells, full-length human LXRβ and SRCP, chemiluminescent signal; read-out: LXRβ PPI
Summary of the method: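 Co-activator recruitment measured by chemiluminescence after signal generation. The CHO line carries full-length human LXRβ tagged with ProLink and an SRCP–enzyme acceptor fusion in the nucleus; cells sat overnight at 37° C before testing, in charcoal-dextran filtered serum medium with 1% final vehicle.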

T2 sequence (P55055 whole entry): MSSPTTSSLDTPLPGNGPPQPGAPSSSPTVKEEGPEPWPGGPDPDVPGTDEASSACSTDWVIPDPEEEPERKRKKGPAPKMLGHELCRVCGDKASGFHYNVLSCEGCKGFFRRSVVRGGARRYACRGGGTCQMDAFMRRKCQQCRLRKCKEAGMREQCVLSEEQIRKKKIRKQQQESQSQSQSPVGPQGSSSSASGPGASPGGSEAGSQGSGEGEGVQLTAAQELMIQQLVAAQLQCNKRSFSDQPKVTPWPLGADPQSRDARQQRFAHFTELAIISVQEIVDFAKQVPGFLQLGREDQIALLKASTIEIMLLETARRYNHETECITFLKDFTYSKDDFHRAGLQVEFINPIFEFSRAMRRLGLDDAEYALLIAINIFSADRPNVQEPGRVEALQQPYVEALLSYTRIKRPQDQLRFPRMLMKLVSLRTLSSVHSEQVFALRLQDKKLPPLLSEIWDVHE

Compound | IC50 (SREBP-2 [1]) | LXRβ PPI (LXRβ [2]) | IC50 (SREBP-2 [3]) | EC50 (LXRβ [4])
CC[C@](O)(CC[C@@H](C)[C@H]1CC[C@H]2[C@@H]3CC=C4C[C@@H](O)CC[C@]4(C)[C@H]3CC[C@]12C)C(F)(F)F [Example 22, (3S,8S,9S,10R,13R,14S,17R)-17-((2R,5S)-5-hydroxy-5-(trifluoromethyl)heptan-2-yl)-10,13-dimethyl-2,3,4,7,8,9,10,11,12,13,14,15,16,17-tetradecahydro-1H-cyclopenta(a)phenanthren-3-ol] | < 250 nM | B (250 nM-1000 nM) | 250 to 1000 nM | –
C[C@H](CC[C@@](O)(C1CCC1)C(F)(F)F)[C@H]1CC[C@H]2[C@@H]3CC=C4C[C@@H](O)CC[C@]4(C)[C@H]3CC[C@]12C [Example 26, (3S,8S,9S,10R,13R,14S,17R)-17-((2R,5R)-5-cyclobutyl-6,6,6-trifluoro-5-hydroxyhexan-2-yl)-10,13-dimethyl-2,3,4,7,8,9,10,11,12,13,14,15,16,17-tetradecahydro-1H-cyclopenta[a]phenanthren-3-ol] | 250 to 1000 nM | B (250 nM-1000 nM) | 250 to 1000 nM | –
(R)-4-((3S,8S,9S,10R,13R,14S,17R)-3-hydroxy-10,13-dimethyl-2,3,4,7,8,9,10,11,12,13,14,15,16,17-tetradecahydro-1H-cyclopenta[a]phenanthren-17-yl)-N-methyl-N-propoxypentanamide [Example 12] | < 250 nM | D (>10000 nM) | – | –
CCON(C)C(=O)CC[C@@H](C)[C@H]1CC[C@H]2[C@@H]3CC=C4C[C@@H](O)CC[C@]4(C)[C@H]3CC[C@]12C [Example 10, (R)—N-ethoxy-4-((3S,8S,9S,10R,13R,14S,17R)-3-hydroxy-10,13-dimethyl-2,3,4,7,8,9,10,11,12,13,14,15,16,17-tetradecahydro-1H-cyclopenta[a]phenanthren-17-yl)-N-methylpentanamide] | < 250 nM | B (250 nM-1000 nM) | < 250 nM | –
C=C[C@](O)(CC[C@@H](C)[C@H]1CC[C@H]2[C@@H]3CC=C4C[C@@H](O)CC[C@]4(C)[C@H]3CC[C@]12C)C(F)(F)F [Example 20, (3S,8S,9S,10R,13R,14S,17R)-17-((2R,5R)-5-hydroxy-5-(trifluoromethyl)hept-6-en-2-yl)-10,13-dimethyl-2,3,4,7,8,9,10,11,12,13,14,15,16,17-tetradecahydro-1H-cyclopenta[a]phenanthren-3-ol] | < 250 nM | D (>10000 nM) | < 250 nM | > 10000 nM
C[C@H](CCC(=O)N(C)C)[C@H]1CC[C@H]2[C@@H]3CC[C@H]4C[C@@H](O)CC[C@]4(C)[C@H]3[C@@H](O)C[C@]12C [Example T5, (R)-4-((3S,5S,8S,9S,10S,11S,13R,14S,17R)-3,11-dihydroxy-10,13-dimethylhexadecahydro-1H-cyclopenta[a]phenanthren-17-yl)-N, N-dimethylpentanamide] | 250 to 1000 nM | – | – | –
CCC1(O)CCN(C(=O)CC[C@@H](C)[C@H]2CC[C@H]3[C@@H]4CC[C@H]5C[C@@H](O)CC[C@]5(C)[C@H]4[C@@H](O)C[C@]23C)CC1 [Example T7, (R)-4-((3S,5S,8S,9S,10S,11S,13R,14S,17R)-3,11-dihydroxy-10,13-dimethylhexadecahydro-1H-cyclopenta[a]phenanthren-17-yl)-1-(4-ethyl-4-hydroxypiperidin-1-yl)pentan-1-one] | 250 to 1000 nM | – | – | –
C[C@H](CCC(=O)N1CC[C@@H](CO)O1)[C@H]1CC[C@H]2[C@@H]3CC=C4C[C@@H](O)CC[C@]4(C)[C@H]3CC[C@]12C [Example 42, (R)-4-((3S,8S,9S,10R,13R,14S,17R)-3-hydroxy-10,13-dimethyl-2,3,4,7,8,9,10,11,12,13,14,15,16,17-tetradecahydro-1H-cyclopenta[a]-phenanthren-17-yl)-1-((S)-5-(hydroxymethyl)isoxazolidin-2-yl) pentan-1-one] | < 250 nM | D (>10000 nM) | 250 to 1000 nM | –
C[C@H](CC[C@@](O)(C1CC1)C(F)(F)F)[C@H]1CC[C@H]2[C@@H]3CC=C4C[C@@H](O)CC[C@]4(C)[C@H]3CC[C@]12C [Example 24, (3S,8S,9S,10R,13R,14S,17R)-17-((2R,5R)-5-cyclopropyl-6,6,6-trifluoro-5-hydroxyhexan-2-yl)-10,13-dimethyl-2,3,4,7,8,9,10,11,12,13,14,15,16,17-tetradecahydro-1H-cyclopenta(a)phenanthren-3-ol] | 250 to 1000 nM | – | 250 to 1000 nM | –
C[C@H](CC[C@](O)(C1CC1)C(F)(F)F)[C@H]1CC[C@H]2[C@@H]3CC=C4C[C@@H](O)CC[C@]4(C)[C@H]3CC[C@]12C [Example 23, (3S,8S,9S,10R,13R,14S,17R)-17-((2R,5s)-5-cyclopropyl-6,6,6-trifluoro-5-hydroxyhexan-2-yl)-10,13-dimethyl-2,3,4,7,8,9,10,11,12,13,14,15,16,17-tetradecahydro-1H-cyclopenta(a)phenanthren-3-ol] | < 250 nM | A (<1 nM to 250 nM) | < 250 nM | –
CCCCON(C)C(=O)CC[C@@H](C)[C@H]1CC[C@H]2[C@@H]3CC=C4C[C@@H](O)CC[C@]4(C)[C@H]3CC[C@]12C [Example 16] | < 250 nM | B (250 nM-1000 nM) | – | 1000 to 10000 nM
CC[C@@](O)(CC[C@@H](C)[C@H]1CC[C@H]2[C@@H]3CC=C4C[C@@H](O)CC[C@]4(C)[C@H]3CC[C@]12C)C(F)(F)F [Example 21, (3S,8S,9S,10R,13R,14S,17R)-17-((2R,5R)-5-hydroxy-5-(trifluoromethyl)heptan-2-yl)-10,13-dimethyl-2,3,4,7,8,9,10,11,12,13,14,15,16,17-tetradecahydro-1H-cyclopenta(a)phenanthren-3-ol] | < 250 nM | C (1000-10000 nM) | < 250 nM | –
C[C@H](CCC(=O)N1CCN(c2cc(O)ncn2)CC1)[C@H]1CC[C@H]2[C@@H]3CC=C4C[C@@H](O)CC[C@]4(C)[C@H]3CC[C@]12C [Example 631, (4R)-4-[(1R,3aS,3bS,7S,9aR,9bS,11aR)-7-hydroxy-9a,11a-dimethyl-1H,2H,3H,3aH,3bH,4H,6H,7H,8H,9H,9aH,9bH,10H,11H,11aH-cyclopenta[a]phenanthren-1-yl]-1-[4-(6-hydroxypyrimidin-4-yl)piperazin-1-yl]pentan-1-one] | – | – | < 250 nM | > 10000 nM
C=C[C@@](O)(CC[C@@H](C)[C@H]1CC[C@H]2[C@@H]3CC=C4C[C@@H](O)CC[C@]4(C)[C@H]3CC[C@]12C)C(F)(F)F [Example 19, (3S,8S,9S,10R,13R,14S,17R)-17-((2R,5S)-5-hydroxy-5-(trifluoromethyl)hept-6-en-2-yl)-10,13-dimethy12,3,4,7,8,9,10,11,12,13,14,15,16,17-tetradecahydro-1H-cyclopenta[a]phenanthren-3-ol] | < 250 nM | D (>10000 nM) | < 250 nM | 1000 to 10000 nM
Cc1nnc(N2CCN(C(=O)CC[C@@H](C)[C@H]3CC[C@H]4[C@@H]5CC=C6C[C@@H](O)CC[C@]6(C)[C@H]5CC[C@]34C)CC2)o1 [Example 482, (R)-4-((3S,8S,9S,10R,13R,14S,17R)-3-hydroxy-10,13-dimethyl-2,3,4,7,8,9,10,11,12,13,14,15,16,17-tetradecahydro-1H-cyclopenta[a]phenanthren-17-yl)-1-(4-(5-methyl-1,3,4-oxadiazol-2-yl)piperazin-1-yl)pentan-1-one] | – | – | < 250 nM | > 10000 nM
C[C@H](CCC(=O)N1CCN(C(=O)OC2CC2)CC1)[C@H]1CC[C@H]2[C@@H]3CC=C4C[C@@H](O)CC[C@]4(C)[C@H]3CC[C@]12C [Example 340, cyclopropyl4-[(4R)-4-[(1R,3aS,3bS,7S,9aR,9bS,11aR)-7-hydroxy-9a,11a-dimethyl-1H,2H,3H,3aH,3bH,4H,6H,7H,8H,9H,9aH,9bH,10H,11H,11aH-cyclopenta[a]phenanthren-1-yl]pentanoyl]piperazine-1-carboxylate] | – | – | < 250 nM | > 10000 nM
C[C@H](CCC(=O)N(C)OCCC(F)(F)F)[C@H]1CC[C@H]2[C@@H]3CC=C4C[C@@H](O)CC[C@]4(C)[C@H]3CC[C@]12C [Example 29, (R)-4-((3S,8S,9S,10R,13R,14S,17R)-3-hydroxy-10,13-dimethyl-2,3,4,7,8,9,10,11,12,13,14,15,16,17-tetradecahydro-1H-cyclopenta[a]phenanthren-17-yl)-N-methyl-N-(3,3,3-trifluoropropoxy)pentanamide] | – | – | < 250 nM | > 10000 nM
C[C@H](CCC(=O)N1CCN(c2ccnnc2)CC1)[C@H]1CC[C@H]2[C@@H]3CC=C4C[C@@H](O)CC[C@]4(C)[C@H]3CC[C@]12C [Example 487, (R)-4-((3S,8S,9S,10R,13R,14S,17R)-3-hydroxy-10,13-dimethyl-2,3,4,7,8,9,10,11,12,13,14,15,16,17-tetradecahydro-1H-cyclopenta[a]phenanthren-17-yl)-1-(4-(pyridazin-4-yl)piperazin-1-yl)pentan-1-one] | – | – | < 250 nM | > 10000 nM
C[C@H](CCC(=O)N1CCN(C(=O)N2CCCC2)C[C@@H]1C)[C@H]1CC[C@H]2[C@@H]3CC=C4C[C@@H](O)CC[C@]4(C)[C@H]3CC[C@]12C [Example 655, (R)-4-((3S,8S,9S,10R,13R,14S,17R)-3-hydroxy-10,13-dimethyl-2,3,4,7,8,9,10,11,12,13,14,15,16,17-tetradecahydro-1H-cyclopenta[a]phenanthren-17-yl)-1-((S)-2-methyl-4-(pyrrolidine-1-carbonyl)piperazin-1-yl)pentan-1-one] | – | – | < 250 nM | > 10000 nM
